Where two headings read alike, the source gives them in different places.
Test system: C. albicans SC5314
Type: cell-based, Candida albicans
Experimental: Based on the results in FIG. 3, single cell suspensions of SC5314 was prepared as follows. Stock culture of C. albicans SC5314 was streaked onto YPD agar (YPDA) and incubated at 30° C. overnight. Single colonies were subcultured in YPD broth (YPDB) and incubated at 30° C., 200 rpm overnight. Overnight culture in YPDB was subcultured in YPD broth again and incubated at 30° C., 200 rpm 48 h. Cells were collected by centrifugation (4000 g 10 min) at 4° C., washed three times with sterile water, and then resuspended in sterile water at a final concentration of 10^9 colony-forming unit/ml (cfu/ml). The suspension was stored at 4° C. at least 1 d, then subcultured into YPDB to a final concentration of 10^6 cfu/ml. After 48 h incubation, cell suspension was examined under the microscope for single cell percentage. When the single cell percentage exceeded 80%, cells were collected and washed three times with water, then resuspended in water to a final concentration of 10^9 cfu/ml, and stored at 4° C. for no more than a month.
Two approaches were taken to determine the percentage of cells with germ tubes formed (GTF %). One way was to count the total cells at the start of incubation, and count the ungerminated cells after incubation, then calculate the GTF % as (1−ungerminated cells/total cells at 0 h)*100. Another way was to store the samples at 15° C. for 20 h after incubation, then count the germinated cells and total cells after disaggregation, then calculated the GTF % as (germinated cells/total cells after storage)*100. […] Therefore, for practical purposes, the GTF % was determined by the first method, that is, GTF %=(1−ungerminated cells/total cells at 0 h)*100, for the in vitro screening discussed herein.
A screening medium, containing 11 mM imidazole buffer, 3 m MMgSO4, and 2.6 mM N-acetyl-D-glucosamine (GlcNAc) has been used to study the effect of farnesol analogs on the germ tube formation of C. albicans. Here, the germ tube formation of C. albicans in modified screening media was assessed with various concentrations of imidazole buffer (10 mM, 30 mM, and 50 mM) and MgSO4 (0.5 mM, 1.5 mM, and 3 mM). […] It took 2 h to 3 h for the GTF % to reach above 80%. For practical purposes, the screening medium, containing 11 mM imidazole buffer, 0.5 m MMgSO4, and 2.6 mM N-acetyl-D-glucosamine (GlcNAc) was adopted for in vitro screening the quorum sensing inhibitory effect of farnesol compounds and botanicals. […]

C=CCCCCCCCC [1-Decene]
GTF %control-GTF %sample (mean ± SD, n = 3) (0.1%): 0%
GTF %control-GTF %sample (mean ± SD, n = 3) (0.2%): 35.2 ± 5.2 %

Cc1ccc(C(C)C)c(O)c1 [Thymol]
GTF % (mean ± SEM, n = 3) (1 mM): 43.7 ± 5.2%

CC(C)=CCCC(C)=CCCC(C)=CCO [farnesol]
GTF %control-GTF %sample (mean ± SD, n = 3) ((0.0022%)): 25.0 ± 4.1%

Reference: patent US10717946B2, “Water soluble essential oils and their use” (KIMBERLY-CLARK WORLDWIDE, INC., priority 2012, dated 2020)
